Each block holds one compound with its values, some of them ahead of it. Residues, ends and D or L forms follow the SMILES beside them. *: point of attachment. Cbz = O=C(OCc1ccccc1)*
Columns and labels:
C2C12 myotubes [1] = assay: Uptake of bioactives into C2C12 myotubes treated with PMI-5011 (UPLC/MS); conditions: PMI-5011 10 μg/mL
Method: (§1) C2C12 myotubes were incubated with vehicle control (DMSO) or PMI-5011 (10 μg/mL) for 1, 6, or 16 h as indicated. At each time point, (A) the medium and washes were collected at neutral pH, (B) this was followed by collection of surface bound compounds at acidic pH and cell lysates that were separated into soluble (Lysate) and insoluble fractions (Pellet) for analysis of content by UPLC/MS.
(§2) Murine C2C12 (ATCC; #CRL-1771) or rat L6 myoblasts (ATCC, #CRL-1458) were cultured in DMEM, high glucose (25 mM) with 10% FBS, 2 mM glutamine, and antibiotics (100 units/mL penicillin G and 100 μg/mL streptomycin) in a humidified chamber at 37° C. and 5% CO2. To obtain fully differentiated myotubes, the medium was exchanged for DMEM, high glucose with 2% horse serum, glutamine, and antibiotics when the myoblasts reached confluence. The medium was replaced every 48 hours, and the cells were maintained in this medium until fully differentiated, when the medium was exchanged for DMEM, low glucose (5 mM) with 2% horse serum. The myotubes were fully formed by the fourth day post-induction. The experiments analyzing the impact of each experimental material on insulin signaling in the presence of palmitate-induced insulin resistance were performed as described previously.^31 To determine uptake of bioactives into the myotubes, the cells were treated with PMI-5011 (10 μg/mL) for 0, 1, or 16 h prior to medium collection. At each time point, the cells were thoroughly rinsed with D-Hanks, pH 7.4 at 4° C., followed by incubation with D-Hanks buffer, pH 4.0 at 4° C. for 30 min with gentle rocking to remove surface-bound compounds. Cells were then collected in denaturing buffer containing 50 mM Tris-Cl, pH 7.4 with 150 mM NaCl, 1 mM EDTA, 1% Igepal, 0.5% Na-deoxycholate, 0.1% SDS, protease inhibitors (1 μM PMSF, 10 μg/mL aprotinin, 1 μg/mL pepstatin, 5 μg/mL leupeptin). The harvested cells were sonicated on ice and the supernatant and pellet were collected by centrifugation at 13,400×g for 10 min at 4° C.
(§3) UPLC/MS Analysis of Cell Preparations. […]

AMPK = AMPK Thr172 phosphorylation in C2C12 myotubes (immunoblot); assay type: cell-based, murine; conditions: for increase in phosphorylation of AMPK (phospho-AMPK to total AMPK, fold over 0-time): 1 hour of exposure, PMI-5011 10 μg/ml, AICAR 0.5 mM, metformin 2 mM
Text: Results shown are representative of three independent experiments.

C2C12 myotubes [2] = conditions: mouse, 10 μg/mL
Method: as §1, §2, §3

[3] = Blood glucose in very high fat diet obese insulin-resistant mice, 6 h after gavage; assay type: in vivo, C57BL/6J male mice; conditions: 6 hour treatment, PMI-5011 500 mg/kg, KOE 500 mg/kg, KOF 100 mg/kg, 2 at 100 or 300 mg/kg, metformin 300 mg/kg
Method: (A) C57BL/6J male mice were fed a 60% kcal fat diet for 16 weeks prior to a 6 h treatment with labrasol (vehicle), metformin, PMI-5011, reconstituted PMI-5011 (RE=KOE+KOF), KOE, KOF, synthetic 2. […] Statistical significance is reported as mean−/+standard deviation, compared to (vehicle) control.
(A) Absolute (mg/dL) and (B) percent change in blood glucose levels from baseline for each treatment group six hours after treatment. […] Statistical significance is reported as mean−/+standard deviation, compared to (vehicle) control; ns, not significant; *p<0.05; ** p<0.01; *** p<0.001.
Glucose Homeostasis. […] To address this, C57BL/6J male mice were fed a very high fat diet (60% kcal fat, VHFD) over 16 weeks to induce obesity, prior to testing the ability of PMI-5011 (500 mg/kg), KOE (500 mg/kg), KOF (100 mg/kg), and purified 2 at 100 or 300 mg/kg body weight to alter blood glucose levels (FIG. 4). Metformin (300 mg/kg) was used as a positive control.
Animal Experiments. Male C57BL/6J mice were obtained from Jackson Laboratories (Bar Harbor, Me.). […] The animals were housed singly with a 12 h light-dark cycle at 24° C. […] Body weight was measured weekly. […]
Blood and Tissue Chemistry. Fasting glucose levels were measured in whole blood using a Breeze2 glucometer (Bayer, Leverkusen, Germany). […]

SIRT1 = SIRT1 protein expression in skeletal muscle of mice; assay type: in vivo, C57BL/6J mice; conditions: gavage
Method: Male C57BL/6J mice were obtained from Jackson Laboratories (Bar Harbor, Me., USA). […] The animals were housed singly with a 12 hour light-dark cycle at 24° C. At 4 weeks of age, the mice were placed on a very high fat diet (60 kcal % fat, D12492, Research Diets) for 16 weeks. Body weight was measured weekly. […] Blood glucose levels were assayed at baseline and each hour thereafter up to 6 hours post gavage. The mice were euthanized and tissues were collected for analysis at 6 hours after gavage.
The tissue and cell lysates were centrifuged at 14,000×g for 10 minutes at 4° C. Protein concentrations were determined using BCA assays (Thermo Fisher Scientific, Rockford, Ill., USA) and the resulting supernatants (50 μg) were resolved by 10% SDS-PAGE and subjected to immunoblotting. Nitrocellulose membranes were incubated with antibodies for 1-2 hours at RT or overnight at 4° C. Image J software was used for quantification of the western blot band intensities.

LKB1 = LKB1 Ser428 phosphorylation in skeletal muscle of mice; assay type: in vivo, C57BL/6J mice; conditions: gavage; compared to vehicle gavaged mice
Method: Tubulin or β-actin are included as a loading control.
Male C57BL/6J mice were obtained from Jackson Laboratories (Bar Harbor, Me., USA). All animal experiments were approved by the Rutgers University Animal Care and Use Committee (Protocol #04-023) and were in compliance with the NIH Guide for the Care and Use of Laboratory. The animals were housed singly with a 12 hour light-dark cycle at 24° C. At 4 weeks of age, the mice were placed on a very high fat diet (60 kcal % fat, D12492, Research Diets) for 16 weeks. Body weight was measured weekly. […] Blood glucose levels were assayed at baseline and each hour thereafter up to 6 hours post gavage. The mice were euthanized and tissues were collected for analysis at 6 hours after gavage.
C2C12 myotube lysates were prepared by sonication in 20 mM Tris pH 7.4, 1% Igepal CA630, 5 mM EDTA with 10 mM Na4P2O7, 100 mM NaF, 2 mM Na3VO4, 1 mM PMSF, 10 μg/ml aprotinin, 1 μg/ml pepstatin, and 5 μg/ml leupeptin. The tissue and cell lysates were centrifuged at 14,000×g for 10 minutes at 4° C. Protein concentrations were determined using BCA assays (Thermo Fisher Scientific, Rockford, Ill., USA) and the resulting supernatants (50 μg) were resolved by 10% SDS-PAGE and subjected to immunoblotting. […] Image J software was used for quantification of the western blot band intensities.

detection in the pellets of treated cells (C2C12 myotubes [1]; insoluble fraction): not detected
detection in the samples from treated cells (C2C12 myotubes [1]; not quantified): detected
Structure (SMILES): O=c1cc(Oc2ccc(O)cc2)oc2cc(O)cc(O)c12 [6-demethoxycapillarisin]

Structure (SMILES): NC(=O)c1ncn([C@@H]2O[C@H](COP(=O)(O)O)[C@@H](O)[C@H]2O)c1N [AICAR, 5-Aminoimidazole-4-carboxamide ribonucleotide]
increase in phosphorylation of AMPK (phospho-AMPK to total AMPK, fold over 0-time) (AMPK): 2.4 fold

detectability of 2 after 16 hours (C2C12 myotubes [2]): undetectable after 16 hours
Structure (SMILES): COc1ccc(CCC(=O)c2ccc(O)cc2O)cc1 [Compound 2, 2′,4′-dihydroxy-4-methoxydihydrochalcone]

Structure (SMILES): CC(C)C[C@@H](C=O)NC(=O)[C@H](CC(C)C)NC(=O)[C@H](CC(C)C)NC(=O)OCc1ccccc1 [MG132] (Cbz-Leu-Leu-Leu-aldehyde)
AMPK phosphorylation at Thr172 under proteasome inhibition (AMPK; MG132 10 μM, up to 4 hours): reduced AMPK phosphorylation

Structure (SMILES): CN(C)C(=N)N=C(N)N [metformin]
increase in phosphorylation of AMPK (phospho-AMPK to total AMPK, fold over 0-time) (AMPK): 1.4 fold
blood glucose levels [3]: significantly reduced
protein expression of SIRT1 (SIRT1): did not observe an increase
phosphorylation of LKB1 Ser428 in skeletal muscle (LKB1): stimulate LKB1 Ser428 phosphorylation

— US20230045522A1, “COMPOSITIONS AND METHODS TO MODULATE GLUCOSE HOMEOSTASIS” (The Board of Supervisors of Louisiana State University and …, priority 2019, published 2023)
